Laboratory results published in the CheMixHub viscosity set.
Several values for one entry are separate records, joined by “and”; a condition that tells them apart may be missing. Equal values may be shown once.

Assay: xn = mol fraction of the nth substance listed

NCCO + O
Settings | viscosity
293.15 K, 100 kPa, x2 = 0.46 | 21.2 mPa·s
293.15 K, 101 kPa, x1 = 0.03289 | 1.389 mPa·s
293.15 K, 101 kPa, x1 = 0.06899 | 1.903 mPa·s
293.15 K, 101 kPa, x1 = 0.069 | 1.88 mPa·s
293.15 K, 101 kPa, x1 = 0.0699 | 1.953 mPa·s
293.15 K, 101 kPa, x1 = 0.1124 | 3.125 mPa·s
293.15 K, 101 kPa, x1 = 0.1654 | 4.243 mPa·s
293.15 K, 101 kPa, x1 = 0.23 | 6.17 mPa·s
293.15 K, 101 kPa, x1 = 0.3043 | 9.893 mPa·s
293.15 K, 101 kPa, x1 = 0.47 | 16.6 mPa·s
293.15 K, 101 kPa, x1 = 0.6204 | 23.11 mPa·s
293.15 K, 101 kPa, x1 = 0.803 | 25.85 mPa·s
293.15 K, 101 kPa, x2 = 0.84 | 4.64 mPa·s
293.15 K, 101 kPa, x2 = 0.93 | 2.002 mPa·s
293.15 K, 101.3 kPa, x1 = 0.07 | 2.005 mPa·s
293.15 K, 101.3 kPa, x1 = 0.2 | 4.667 mPa·s and 7.345 mPa·s
293.15 K, 101.3 kPa, x1 = 0.3 | 11.29 mPa·s
293.15 K, 101.3 kPa, x1 = 0.4 | 15.77 mPa·s
293.15 K, 101.3 kPa, x1 = 0.5 | 21 mPa·s
293.15 K, 101.3 kPa, x1 = 0.7 | 24.02 mPa·s
298.14 K, 100 kPa, x1 = 0.112 | 2.464 mPa·s
298.15 K, 100 kPa, x1 = 0.069 | 1.621 mPa·s
298.15 K, 100 kPa, x1 = 0.11 | 2.415 mPa·s
298.15 K, 100 kPa, x1 = 0.112 | 2.467 mPa·s and 2.464 mPa·s
298.15 K, 101 kPa, x1 = 0.03289 | 1.224 mPa·s
298.15 K, 101 kPa, x1 = 0.06899 | 1.689 mPa·s
298.15 K, 101 kPa, x1 = 0.1121 | 2.44 mPa·s
298.15 K, 101 kPa, x1 = 0.1122 | 2.54 mPa·s
298.15 K, 101 kPa, x1 = 0.1124 | 2.714 mPa·s
298.15 K, 101 kPa, x1 = 0.1422 | 3.11 mPa·s
298.15 K, 101 kPa, x2 = 0.84 | 3.41 mPa·s and 3.76 mPa·s
298.15 K, 101 kPa, x2 = 0.8878 | 2.52 mPa·s
298.15 K, 101 kPa, x2 = 0.89 | 2.46 mPa·s
298.15 K, 101.3 kPa, x1 = 0.03 | 1.299 mPa·s
298.15 K, 101.3 kPa, x1 = 0.1 | 2.489 mPa·s
298.15 K, 101.3 kPa, x1 = 0.2 | 3.765 mPa·s and 5.547 mPa·s
298.15 K, 101.3 kPa, x1 = 0.3 | 9.062 mPa·s
298.15 K, 101.3 kPa, x1 = 0.4 | 12.6 mPa·s
298.15 K, 101.3 kPa, x1 = 0.5 | 16.29 mPa·s
298.15 K, 101.3 kPa, x1 = 0.7 | 19.9 mPa·s
303.15 K, 100 kPa, x1 = 0.1 | 1.91 mPa·s
303.15 K, 100 kPa, x1 = 0.2 | 3.87 mPa·s
303.15 K, 100 kPa, x1 = 0.3 | 6.67 mPa·s
303.15 K, 100 kPa, x1 = 0.4 | 9.68 mPa·s
303.15 K, 100 kPa, x1 = 0.5 | 12.3 mPa·s
303.15 K, 100 kPa, x1 = 0.6 | 14 mPa·s
303.15 K, 100 kPa, x2 = 0.46 | 13.1 mPa·s
303.15 K, 101 kPa, x1 = 0.03289 | 1.087 mPa·s
303.15 K, 101 kPa, x1 = 0.06899 | 1.482 mPa·s
303.15 K, 101 kPa, x1 = 0.0699 | 1.477 mPa·s and 1.177 mPa·s
303.15 K, 101 kPa, x1 = 0.1122 | 2.19 mPa·s
303.15 K, 101 kPa, x1 = 0.1124 | 2.397 mPa·s
303.15 K, 101 kPa, x1 = 0.1422 | 2.65 mPa·s
303.15 K, 101 kPa, x1 = 0.1654 | 3.059 mPa·s
303.15 K, 101 kPa, x1 = 0.3043 | 6.608 mPa·s
303.15 K, 101 kPa, x1 = 0.6204 | 13.65 mPa·s
303.15 K, 101 kPa, x1 = 0.803 | 15.72 mPa·s
303.15 K, 101 kPa, x2 = 0.84 | 3.27 mPa·s
303.15 K, 101 kPa, x2 = 0.93 | 1.496 mPa·s
303.15 K, 101.3 kPa, x1 = 0.03 | 1.121 mPa·s
303.15 K, 101.3 kPa, x1 = 0.07 | 1.501 mPa·s
303.15 K, 101.3 kPa, x1 = 0.1 | 2.195 mPa·s
303.15 K, 101.3 kPa, x1 = 0.2 | 3.279 mPa·s and 4.96 mPa·s
303.15 K, 101.3 kPa, x1 = 0.3 | 7.417 mPa·s
303.15 K, 101.3 kPa, x1 = 0.4 | 10.31 mPa·s
303.15 K, 101.3 kPa, x1 = 0.5 | 13.15 mPa·s
308.15 K, 101 kPa, x1 = 0.03289 | 0.973 mPa·s
308.15 K, 101 kPa, x1 = 0.06899 | 1.31 mPa·s
308.15 K, 101 kPa, x1 = 0.1124 | 2.143 mPa·s
313 K, 101 kPa, x1 = 0.11 | 1.57 mPa·s
313.15 K, 100 kPa, x1 = 0.1 | 1.48 mPa·s
313.15 K, 100 kPa, x2 = 0.46 | 8.59 mPa·s
313.15 K, 101 kPa, x1 = 0.03289 | 0.878 mPa·s
313.15 K, 101 kPa, x1 = 0.11 | 1.66 mPa·s
313.15 K, 101 kPa, x1 = 0.1124 | 1.95 mPa·s
313.15 K, 101 kPa, x1 = 0.1422 | 1.99 mPa·s
313.15 K, 101 kPa, x1 = 0.3043 | 4.654 mPa·s
313.15 K, 101 kPa, x1 = 0.803 | 10.54 mPa·s
313.15 K, 101 kPa, x2 = 0.84 | 2.3 mPa·s
313.15 K, 101 kPa, x2 = 0.93 | 1.163 mPa·s
313.15 K, 101.3 kPa, x1 = 0.03 | 0.909 mPa·s
313.15 K, 101.3 kPa, x1 = 0.2 | 3.423 mPa·s
313.15 K, 101.3 kPa, x1 = 0.3 | 5.291 mPa·s
313.15 K, 101.3 kPa, x1 = 0.4 | 7.024 mPa·s
313.15 K, 101.3 kPa, x1 = 0.5 | 8.95 mPa·s
318.15 K, 101 kPa, x1 = 0.03289 | 0.798 mPa·s
318.15 K, 101 kPa, x1 = 0.06899 | 1.048 mPa·s
323 K, 101 kPa, x1 = 0.11 | 1.22 mPa·s
323.15 K, 100 kPa, x2 = 0.46 | 5.92 mPa·s
323.15 K, 101 kPa, x1 = 0.03289 | 0.731 mPa·s
323.15 K, 101 kPa, x1 = 0.06899 | 0.948 mPa·s
323.15 K, 101 kPa, x1 = 0.069 | 0.94 mPa·s
323.15 K, 101 kPa, x1 = 0.0699 | 0.973 mPa·s
323.15 K, 101 kPa, x1 = 0.1654 | 1.76 mPa·s
323.15 K, 101 kPa, x1 = 0.23 | 2.57 mPa·s
323.15 K, 101 kPa, x1 = 0.3043 | 3.401 mPa·s
323.15 K, 101 kPa, x1 = 0.47 | 5.37 mPa·s
323.15 K, 101 kPa, x1 = 0.6204 | 6.592 mPa·s
323.15 K, 101 kPa, x1 = 0.803 | 7.219 mPa·s
323.15 K, 101 kPa, x2 = 0.84 | 1.78 mPa·s
323.15 K, 101 kPa, x2 = 0.89 | 1.23 mPa·s
323.15 K, 101 kPa, x2 = 0.93 | 0.942 mPa·s
323.15 K, 101.3 kPa, x1 = 0.03 | 0.715 mPa·s
323.15 K, 101.3 kPa, x1 = 0.07 | 0.945 mPa·s
323.15 K, 101.3 kPa, x1 = 0.1 | 1.338 mPa·s
323.15 K, 101.3 kPa, x1 = 0.2 | 1.782 mPa·s and 2.566 mPa·s
323.15 K, 101.3 kPa, x1 = 0.3 | 3.771 mPa·s
323.15 K, 101.3 kPa, x1 = 0.4 | 5.055 mPa·s
323.15 K, 101.3 kPa, x1 = 0.5 | 6.273 mPa·s
323.15 K, 101.3 kPa, x1 = 0.7 | 7.09 mPa·s
